# Test results from ChEMBL document CHEMBL1201862, “PubChem BioAssay data set” (2004).
# Activity calls are given as the source filed them.
# Key:
# Cytochrome P450 2D6 = Cytochrome P450 2D6 (Homo sapiens, UniProt P10635);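 also: CYP2D6 member of a cytochrome P450 panel assay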
# Cytochrome P450 2C9 = Cytochrome P450 2C9 (Homo sapiens, UniProt P11712)
# [1] = biological target: T1, Rac GTPase-activating protein 1 (Homo sapiens, UniProt Q9H0H5); experiment: MgcRacGAP GTPase-activating activity inhibitors, confirmation, biochemical, ADP Hunter fluorescence, primary and confirmatory (AID 624330); assay type: functional
# T1 sequence (Q9H0H5 whole entry): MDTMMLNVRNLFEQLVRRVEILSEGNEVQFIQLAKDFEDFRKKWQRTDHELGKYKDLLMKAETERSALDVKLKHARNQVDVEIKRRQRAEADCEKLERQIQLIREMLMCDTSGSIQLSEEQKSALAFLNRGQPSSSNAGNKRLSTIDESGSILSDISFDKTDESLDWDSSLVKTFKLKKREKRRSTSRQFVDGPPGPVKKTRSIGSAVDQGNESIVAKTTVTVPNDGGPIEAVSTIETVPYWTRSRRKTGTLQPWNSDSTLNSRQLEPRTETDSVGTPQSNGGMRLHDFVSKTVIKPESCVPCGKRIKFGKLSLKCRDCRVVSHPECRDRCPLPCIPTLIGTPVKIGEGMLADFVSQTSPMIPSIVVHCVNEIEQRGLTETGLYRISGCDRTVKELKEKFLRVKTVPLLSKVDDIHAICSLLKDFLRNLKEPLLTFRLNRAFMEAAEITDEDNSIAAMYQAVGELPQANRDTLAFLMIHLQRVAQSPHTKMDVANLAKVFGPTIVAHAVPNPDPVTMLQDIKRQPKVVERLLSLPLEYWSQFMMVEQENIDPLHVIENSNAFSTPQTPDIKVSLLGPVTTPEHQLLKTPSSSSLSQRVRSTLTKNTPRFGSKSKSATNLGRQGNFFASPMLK
# Cytochrome P450 1A2 = biological target: T2, Cytochrome P450 1A2 (Homo sapiens, UniProt P05177);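 also: PubChem cytochrome P450 panel assay, CYP1A2 panel member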
# T2 sequence (P05177 whole entry): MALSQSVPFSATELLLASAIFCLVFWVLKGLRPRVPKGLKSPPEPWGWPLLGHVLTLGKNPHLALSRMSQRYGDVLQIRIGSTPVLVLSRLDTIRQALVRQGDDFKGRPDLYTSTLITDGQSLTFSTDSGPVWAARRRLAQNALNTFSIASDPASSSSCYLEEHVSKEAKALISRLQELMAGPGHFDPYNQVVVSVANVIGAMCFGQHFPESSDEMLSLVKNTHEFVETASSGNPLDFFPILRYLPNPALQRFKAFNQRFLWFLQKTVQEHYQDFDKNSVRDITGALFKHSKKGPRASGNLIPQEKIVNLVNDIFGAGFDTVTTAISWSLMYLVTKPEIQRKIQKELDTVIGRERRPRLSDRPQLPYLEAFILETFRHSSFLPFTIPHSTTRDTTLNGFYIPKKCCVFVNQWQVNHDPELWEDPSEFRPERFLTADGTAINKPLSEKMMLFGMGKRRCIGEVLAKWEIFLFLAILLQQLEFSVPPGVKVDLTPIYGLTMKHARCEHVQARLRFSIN
# [2] = biological target: Luciferin 4-monooxygenase (Photinus pyralis, UniProt P08659); experiment: firefly luciferase enzyme inhibitors, dose response, biochemical, luminescence (AID 1891)
# Luciferin 4-monooxygenase, sequence (P08659 whole entry): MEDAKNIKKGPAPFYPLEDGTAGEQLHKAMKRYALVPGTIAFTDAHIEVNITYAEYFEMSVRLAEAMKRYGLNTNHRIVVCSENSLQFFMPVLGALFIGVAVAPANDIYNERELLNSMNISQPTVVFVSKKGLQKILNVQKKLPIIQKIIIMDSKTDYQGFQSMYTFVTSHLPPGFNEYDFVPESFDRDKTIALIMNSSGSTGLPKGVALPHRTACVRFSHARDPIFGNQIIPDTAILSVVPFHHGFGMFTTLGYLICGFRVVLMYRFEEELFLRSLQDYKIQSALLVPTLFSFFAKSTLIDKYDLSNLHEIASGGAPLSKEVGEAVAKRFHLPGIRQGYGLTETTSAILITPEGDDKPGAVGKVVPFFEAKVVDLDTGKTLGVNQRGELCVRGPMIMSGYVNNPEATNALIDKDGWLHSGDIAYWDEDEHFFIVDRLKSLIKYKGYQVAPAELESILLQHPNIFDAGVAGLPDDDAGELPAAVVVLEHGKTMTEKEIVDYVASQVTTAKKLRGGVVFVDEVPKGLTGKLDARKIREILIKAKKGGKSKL
# [3] = Luminescence Cell-Based Dose Confirmation HTS to Identify Inhibitors of Platelet Dense Granule Release. [Related pubchem assays: 1663 (Primary HTS), 1678 (Summary of Project)]; assay type: functional
# [4] = Luminescence Cell-Based Dose Retest to Confirm Inhibitors of Cancer Stem Cells. [Related pubchem assays (depositor defined):AID2717, AID2721]; assay type: functional; details: Homo sapiens
# Cytochrome P450 3A4 = Cytochrome P450 3A4 (Homo sapiens, UniProt P08684);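 also: CYP3A4 tested as one member of a cytochrome P450 panel screen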
# Cytochrome P450 3A4, sequence (P08684 whole entry): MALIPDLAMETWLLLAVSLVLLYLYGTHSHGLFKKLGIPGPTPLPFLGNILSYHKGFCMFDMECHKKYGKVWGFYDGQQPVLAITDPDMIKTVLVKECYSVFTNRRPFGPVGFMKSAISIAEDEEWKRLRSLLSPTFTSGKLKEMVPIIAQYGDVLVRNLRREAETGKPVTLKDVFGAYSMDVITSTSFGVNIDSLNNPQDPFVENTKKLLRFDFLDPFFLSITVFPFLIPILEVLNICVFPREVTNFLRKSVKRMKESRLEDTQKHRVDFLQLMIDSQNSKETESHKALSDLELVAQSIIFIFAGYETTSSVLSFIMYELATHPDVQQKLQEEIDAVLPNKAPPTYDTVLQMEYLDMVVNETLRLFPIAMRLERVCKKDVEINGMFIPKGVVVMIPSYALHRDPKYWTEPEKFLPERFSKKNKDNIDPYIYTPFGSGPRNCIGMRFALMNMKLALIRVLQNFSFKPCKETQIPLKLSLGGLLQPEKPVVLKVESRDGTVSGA
# Cytochrome P450 2C19 = Cytochrome P450 2C19 (Homo sapiens, UniProt P33261); experiment: Cytochrome panel assay with activity outcomes. Panel member name: p450-cyp2c19 Compounds with AC50 equal or less than 10 uM are considered active; assay type: functional; details: read-out: AC50
# Cytochrome P450 2C19, sequence (P33261 whole entry, the tested form may be a part): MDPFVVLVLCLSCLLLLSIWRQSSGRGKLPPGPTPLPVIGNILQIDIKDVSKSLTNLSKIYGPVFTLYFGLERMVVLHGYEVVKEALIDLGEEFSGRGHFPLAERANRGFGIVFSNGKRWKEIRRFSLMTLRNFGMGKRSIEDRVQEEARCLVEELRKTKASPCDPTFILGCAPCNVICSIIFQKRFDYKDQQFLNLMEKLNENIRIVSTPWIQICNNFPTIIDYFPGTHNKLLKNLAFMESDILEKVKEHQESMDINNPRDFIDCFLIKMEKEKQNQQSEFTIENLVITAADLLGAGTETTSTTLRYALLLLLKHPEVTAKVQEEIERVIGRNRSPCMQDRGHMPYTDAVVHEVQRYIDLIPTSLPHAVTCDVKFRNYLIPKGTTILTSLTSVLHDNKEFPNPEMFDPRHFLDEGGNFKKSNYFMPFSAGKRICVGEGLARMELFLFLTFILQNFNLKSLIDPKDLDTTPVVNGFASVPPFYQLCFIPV
# [5] = biological target: T3, RNA-binding protein pos-1 (Caenorhabditis elegans, UniProt G5EF15); experiment: inhibitors of POS-1/mex-3 RNA binding, dose response, biochemical, fluorescence polarization (AID 1964);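 also: purified POS-1 fused to maltose binding protein made in E. coli; potency of compounds blocking POS-1 binding to fluorescent RNA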
# T3 sequence (G5EF15 whole entry): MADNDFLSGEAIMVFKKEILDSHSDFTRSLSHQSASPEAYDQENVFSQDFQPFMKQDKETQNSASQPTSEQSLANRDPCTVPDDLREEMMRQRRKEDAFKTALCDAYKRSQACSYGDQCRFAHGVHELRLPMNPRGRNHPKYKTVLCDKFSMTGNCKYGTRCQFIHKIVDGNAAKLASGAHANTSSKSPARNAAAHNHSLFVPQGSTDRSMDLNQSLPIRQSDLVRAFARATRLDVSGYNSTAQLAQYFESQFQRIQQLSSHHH
# Cytochrome P450 2D6, sequence (P10635 whole entry): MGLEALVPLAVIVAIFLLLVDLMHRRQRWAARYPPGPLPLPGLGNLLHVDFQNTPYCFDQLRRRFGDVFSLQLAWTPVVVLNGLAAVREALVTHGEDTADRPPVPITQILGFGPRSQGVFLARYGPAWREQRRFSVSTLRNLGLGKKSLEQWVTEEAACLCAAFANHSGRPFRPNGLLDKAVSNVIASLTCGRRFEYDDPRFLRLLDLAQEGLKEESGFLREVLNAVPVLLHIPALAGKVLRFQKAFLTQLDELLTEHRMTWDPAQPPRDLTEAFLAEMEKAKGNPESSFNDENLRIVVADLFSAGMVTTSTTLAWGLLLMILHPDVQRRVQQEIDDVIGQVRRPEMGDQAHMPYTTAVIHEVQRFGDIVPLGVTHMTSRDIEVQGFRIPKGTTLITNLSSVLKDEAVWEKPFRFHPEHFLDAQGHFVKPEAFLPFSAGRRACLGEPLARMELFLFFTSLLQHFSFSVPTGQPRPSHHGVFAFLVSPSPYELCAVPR
# Cytochrome P450 2C9, sequence (P11712 whole entry): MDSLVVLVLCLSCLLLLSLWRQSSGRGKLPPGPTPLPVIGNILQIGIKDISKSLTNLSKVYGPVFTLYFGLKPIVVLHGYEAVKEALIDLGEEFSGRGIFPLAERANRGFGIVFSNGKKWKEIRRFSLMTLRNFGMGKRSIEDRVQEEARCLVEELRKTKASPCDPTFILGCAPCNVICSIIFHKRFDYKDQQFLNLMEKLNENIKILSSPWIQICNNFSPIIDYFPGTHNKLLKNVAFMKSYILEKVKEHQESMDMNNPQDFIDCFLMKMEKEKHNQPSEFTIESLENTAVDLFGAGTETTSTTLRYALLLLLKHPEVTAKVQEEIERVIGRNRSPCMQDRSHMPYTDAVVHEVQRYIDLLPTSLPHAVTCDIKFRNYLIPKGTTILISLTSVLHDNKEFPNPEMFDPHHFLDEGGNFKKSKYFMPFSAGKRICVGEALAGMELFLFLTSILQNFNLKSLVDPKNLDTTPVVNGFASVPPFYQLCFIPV
compound,measurement,setting,value
CC(C)c1cccc2nc3c(c([Si](C)(C)C)c12)Cn1c-3cccc1=O,AC50,Cytochrome P450 2D6,39.8 µM (inconclusive)
same,AC50,Cytochrome P450 2C9,39.8 µM (inconclusive)
Cc1sc2ncnc(N(C)CCc3ccccn3)c2c1C,IC50,[1],148 µM (active)
COCC(C)NCc1ccccc1C (stereo unspecified),IC50,[1],138 µM (active)
COC(=O)c1cc(NS(=O)(=O)c2ccc(N3CCCCCC3)c([N+](=O)[O-])c2)cc(C(=O)OC)c1,AC50,Cytochrome P450 2D6,12.6 µM (inconclusive)
same,AC50,Cytochrome P450 1A2,14.1 µM (inconclusive)
c1cc2cc(c1)C[n+]1ccc(c3ccccc31)NCc1ccc(cc1)CNc1cc[n+](c3ccccc13)C2,AC50,Cytochrome P450 2D6,39.8 µM (inconclusive)
O=C(OCc1nnc(-c2ccccc2)o1)c1ccc2c(c1)OCCO2,AC50,Cytochrome P450 2D6,28.2 µM (inconclusive)
CC(CO)Nc1nc(SCc2ccccc2)nc2sc3c(c12)CCC3 (stereo unspecified),AC50,Cytochrome P450 2D6,12.6 µM (inconclusive)
COc1ccc(C(=O)NCC(=O)OCc2cccc(Br)c2)cc1,AC50,Cytochrome P450 2D6,15.8 µM (inconclusive)
O=C(c1ccc(S(=O)(=O)Nc2ccccc2)cc1)N1CCCC1,EC50,[2],> 112 µM (not active)
same,EC50,[3],> 112 µM (not active)
Cc1nc2ccccc2n1CC(=O)N/N=C\C=C\c1ccccc1,AC50,Cytochrome P450 2D6,35.5 µM (inconclusive)
Cc1cc(-c2ccc(S(=O)(=O)N3CCN(c4ccccc4F)CC3)s2)on1,EC50,[2],> 112 µM (not active)
same,EC50,[3],> 112 µM (not active)
COc1ccc(Cn2nnnc2C(c2cccnc2)N2CCN(c3ccc(O)cc3)CC2)cc1 (stereo unspecified),IC50,[1],39.6 µM (active)
O=c1cc(N2CCCCC2)c(-c2ccccc2)nn1Cc1ccccc1,AC50,[4],2.06 µM (active)
N#Cc1cccc(NC(=O)N2CCC3(CC2)CCN(C(=O)c2csnn2)CC3)c1,AC50,Cytochrome P450 2D6,15.8 µM (inconclusive)
same,AC50,Cytochrome P450 3A4,20 µM (inconclusive)
CC[C@@H]1CC=C[C@H]2[C@H]1C(=O)N(Cc1ccccc1)[C@H]2c1ccoc1,AC50,[4],5.39 µM (active)
Cc1cccc(C(=N)NOC(=O)c2ccc(Cl)cc2Cl)c1,EC50,[2],0.761 µM (active)
same,EC50,[3],3.2 µM (active)
CCOc1cc(/C=N/NC(=O)C2CCCC2)ccc1O,IC50,[1],52.1 µM (active)
COc1ccc(C(C(=O)Nc2ccc(F)cc2)N(C(=O)Cn2nnc3ccccc32)C2CC2)cc1 (stereo unspecified),AC50,Cytochrome P450 2C19,10 µM (inconclusive)
same,AC50,Cytochrome P450 2D6,28.2 µM (inconclusive)
Cc1cc(NC(=O)CN2CCC(C)CC2)no1,IC50,[1],253 µM (active)
CN(C)C(CNS(=O)(=O)c1ccc2ccccc2c1)c1ccccc1 (stereo unspecified),AC50,[4],> 195 µM (inactive)
CN1CCN(/N=C/c2nc(-c3ccccc3)n3ccccc23)CC1,IC50,[1],29.1 µM (active)
CN1CCc2c(sc(NC(=O)c3ccc(S(=O)(=O)N4CCc5ccccc54)cc3)c2C(N)=O)C1,AC50,[4],2.91 µM (active)
O=C(Nc1cccc(F)c1)C1CCN(C(=O)Cc2ccccc2)CC1,EC50,[2],> 112 µM (not active)
same,EC50,[3],> 112 µM (not active)
O=C1NC(=O)N(c2cccc(F)c2)C(=O)/C1=C/c1c[nH]c2ccccc12,EC50,[5],> 300 µM (not active)
O=C(Nc1cccc(O)c1)c1noc2c1CCc1ccccc1-2,EC50,[2],1.03 µM (active)
same,EC50,[3],8.29 µM (active)
Cc1nc2oc3c(NCC4CCCO4)ncnc3c2c2c1COC(C)(C)C2 (stereo unspecified),EC50,[2],> 112 µM (not active)
same,EC50,[3],> 112 µM (not active)
CC(Cc1ccccc1)Nc1ncnc2c1ncn2C1OC(CO)C(O)C1O (stereo unspecified),EC50,[2],> 112 µM (not active)
same,EC50,[3],< 0.701 µM (active)
N#Cc1nc(Cc2ccccc2)oc1N1CCCC1,EC50,[2],18.5 µM (active)
same,EC50,[3],> 112 µM (not active)
CC(C)=CCc1c(O)cc2c(=O)c3ccc(O)cc3oc2c1O,AC50,[4],5.16 µM (active)
O=C(Cn1c(O)c(N=NC(=O)c2ccncc2)c2ccccc21)Nc1ccccc1,EC50,[2],> 112 µM (not active)
same,EC50,[3],> 112 µM (not active)
O=C(/C(=C/c1cccnc1)n1ccnc1)c1ccc(Cl)cc1Cl,IC50,[1],223 µM (active)
COc1ccc(C(=O)/C=C/c2ccc(O)cc2)cc1,IC50,[1],37 µM (active)
CCNc1ncc2nc(-c3cccs3)c(=O)n(C[C@H]3CCCO3)c2n1,AC50,Cytochrome P450 2D6,0.2 µM (inconclusive)
same,AC50,Cytochrome P450 3A4,7.94 µM (inconclusive)
N#CC1(Nc2ccc3c4c(cccc24)CC3)CCCCC1,IC50,[1],18.5 µM (active)
COc1ccccc1CNc1ncnc2ccc(-c3c(C)noc3C)cc12,AC50,Cytochrome P450 2C19,31.6 µM (inconclusive)
same,AC50,Cytochrome P450 2D6,39.8 µM (inconclusive)
same,AC50,Cytochrome P450 2C9,0.794 µM (inconclusive)
